Laboratory results published in patent US6395750B1, “Drugs for the treatment of malignant tumors” (Active Biotech AB, priority 1999, dated 2002).
Marks after values point to notes of the source that are not given here.

What was measured:
[1] = system: Dunning R-3327 AT-1 tumour; assay: Primary screen: tumour growth inhibition, Dunning R-3327 AT-1 prostatic cancer transplanted sc; type: in vivo, rat
Experimental: The compounds of general formula (I) were assayed for their capacity to inhibit of growth of the Dunning R-3327 AT-1 tumour, a prostatic rat cancer.
R-3327 AT-1 Prostatic cancer in man is an angiogenic type of solid tumour. The Dunning R-3327 AT-1 is a prostatic cancer of the rat and suits as an experimental animal model for this disease. The AT-1 tumour is serially transplanted subcutaneously (sc) on syngeneic rats of the Copenhagen strain. Small pieces of the tumour are transplanted sc to recipient rats and treatment of the tumour bearing rats start when the tumours are easily measurable approximately on day 10 after transplantation. Doses of the compounds are given either orally or parentally 5 days a week for four weeks. The tumour growth and body weight gain are monitored during the experimental time.

[2] = patients with renal cell carcinoma; cited from earlier work
[3] = beagle dog, literature; cited from earlier work
[4] = system: Dunning R-3327 rat prostatic cancers; details: literature report; cited from earlier work
[5] = Beagle Pain Syndrome, pro-inflammatory reaction (ESR, AP); type: in vivo, beagle dog; details: beagle dogs, five consecutive days
[6] = 8 mg/kg ip, treatment given on Day 11

CC[C@]1(O)C[C@@H]2CN(CCc3c([nH]c4ccccc34)[C@@](C(=O)OC)(c3cc4c(cc3OC)N(C)[C@H]3[C@@](O)(C(=O)OC)[C@H](OC(C)=O)[C@]5(CC)C=CCN6CC[C@]43[C@@H]65)C2)C1 [vinblastine]
% Tumour Weight Reduction ([1]; 1 mg/kg iv, treatment given on Day 11): 0% | % Tumour Weight Reduction ([1]; 4 mg/kg iv, treatment given on Day 11): toxic

COc1cccc2c1C(=O)c1c(O)c3c(c(O)c1C2=O)C[C@@](O)(C(=O)CO)C[C@@H]3O[C@H]1C[C@H](N)[C@H](O)[C@H](C)O1 [doxorubicin]
% Tumour Weight Reduction ([1]; 4 mg/kg ip, treatment given on Day 11): 0% | % Tumour Weight Reduction [1, 6]: 31^b) % | body weight effect [1, 6]: ^b)8 mg/kg of doxorubicin caused a body weight loss

CN(C(=O)c1c(O)c2ccccc2n(C)c1=O)c1ccccc1 [Compound E, N-methyl-N-phenyl-1,2-dihydro-4-hydroxy-1-methyl-2-oxo-quinoline-3-carboxamide]
patients withdrawn or having dose reductions due to adverse events [2]: 40% | induction of beagle pain syndrome (fever, myalgia, arthralgia, arteritis) [3]: induces the beagle pain syndrome | antitumour effects [4]: antitumour effects | % Tumour Weight Reduction ([1]; 4 mg/kg sc): 30% | inhibition of growth of the Dunning R-3327 AT-1 tumour ([1]; 4 mg/kg, positive treatment control): 30%

CCN(C(=O)c1c(O)c2c(Cl)cccc2n(C)c1=O)c1ccccc1 [Compound A, N-ethyl-N-phenyl-1,2-dihydro-4-hydroxy-5-chloro-1-methyl-2-oxo-quinoline-3-carboxamide]
AP percentage change (Day 8 - baseline) ([5]; 1 mg/kg p. o.): 25% | ESR percentage change (Day 8 - baseline) ([5]; 1 mg/kg p. o.): 177% | AP percentage change (Day 8 - baseline) ([5]; 10 mg/kg p. o.): 109% | ESR percentage change (Day 8 - baseline) ([5]; 10 mg/kg p. o.): 515% | % Tumour Weight Reduction ([1]; 2 mg/kg sc): 37%

CSc1cccc2c1c(O)c(C(=O)N(C)c1ccc(F)cc1F)c(=O)n2C [C, N-methyl-N-(2,4-difluoro-phenyl)-1,2-dihydro-4-hydroxy-5-thiomethyl-1-methyl-2-oxo-quinoline-3-carboxamide]
% Tumour Weight Reduction ([1]; 2 mg/kg po): 39%

CN(C(=O)c1c(O)c2c(Cl)cccc2n(C)c1=O)c1ccc(Cl)cc1 [B, N-methyl-N-(4-chloro-phenyl)-1,2-dihydro-4-hydroxy-5-chloro-1-methyl-2-oxo-quinoline-3-carboxamide]
% Tumour Weight Reduction ([1]; 2 mg/kg po): 28%

Cc1cccc2c1c(N)c(C(=O)N(C)c1ccccc1)c(=O)n2C [Compound D, N-methyl-N-phenyl-4-amino-1,2-dihydro-1,5-dimethyl-2-oxo-quinoline-3-carboxamide]
% Tumour Weight Reduction ([1]; 2 mg/kg sc): 38%
